Assay results: PubChem BioAssay (NCI)
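At the GI50, growth is halved. TGI is the concentration that stops growth completely.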

Experiments:
Assay in all cases: NCI tumour cell line growth inhibition, 384-well format
NCI-H23 lung = test system: NCI-H23 lung
NCI-H322M lung = test system: NCI-H322M lung
NCI-H460 NSCLC = test system: NCI-H460 NSCLC
NCI-H522 lung = test system: NCI-H522 lung
NCI/ADR-RES ovarian = test system: NCI/ADR-RES ovarian
OVCAR-3 ovarian = test system: OVCAR-3 ovarian
OVCAR-4 ovarian = test system: OVCAR-4 ovarian
OVCAR-5 ovarian = test system: OVCAR-5 ovarian
OVCAR-8 ovarian = test system: OVCAR-8 ovarian
PC-3 prostate = test system: PC-3 prostate
RPMI-8226 leukemia = test system: RPMI-8226 leukemia
RXF 393 renal = test system: RXF 393 renal
SF-268 CNS = test system: SF-268 CNS
SF-295 CNS = test system: SF-295 CNS
SF-539 CNS = test system: SF-539 CNS
SK-MEL-5 melanoma = test system: SK-MEL-5 melanoma
SK-OV-3 ovarian = test system: SK-OV-3 ovarian
SN12C renal = test system: SN12C renal
SNB-19 CNS = test system: SNB-19 CNS
SNB-75 CNS = test system: SNB-75 CNS
SR leukemia = test system: SR leukemia
SW-620 colon = test system: SW-620 colon
T-47D breast = test system: T-47D breast
TK-10 renal = test system: TK-10 renal
U251 glioblastoma = test system: U251 glioblastoma
UO-31 renal = test system: UO-31 renal

COc1ccc(-c2cc3c(C)nc(N)nc3n(C3CCC(OCCO)CC3)c2=O)cn1 (configuration not stated)
GI50 (NCI-H23 lung): 132 nM
TGI (NCI-H23 lung): 5990 nM
GI50 (NCI-H322M lung): 149 nM
TGI (NCI-H322M lung): 13300 nM
GI50 (NCI-H460 NSCLC): 40.9 nM
TGI (NCI-H460 NSCLC): 11600 nM
GI50 (NCI-H522 lung): 71.6 nM
TGI (NCI-H522 lung): 1200 nM
GI50 (NCI/ADR-RES ovarian): 241 nM
TGI (NCI/ADR-RES ovarian): 2270 nM
GI50 (OVCAR-3 ovarian): 53 nM
TGI (OVCAR-3 ovarian): 318 nM
GI50 (OVCAR-4 ovarian): 90.2 nM
TGI (OVCAR-4 ovarian): 854 nM
GI50 (OVCAR-5 ovarian): 145 nM
TGI (OVCAR-5 ovarian): 1750 nM
GI50 (OVCAR-8 ovarian): 245 nM
TGI (OVCAR-8 ovarian): 6520 nM
GI50 (PC-3 prostate): 41.8 nM
TGI (PC-3 prostate): 434 nM
GI50 (RPMI-8226 leukemia): 28.7 nM
TGI (RPMI-8226 leukemia): 105 nM
GI50 (RXF 393 renal): 37 nM
TGI (RXF 393 renal): 199 nM
GI50 (SF-268 CNS): 231 nM
TGI (SF-268 CNS): 1730 nM
GI50 (SF-295 CNS): 45.5 nM
TGI (SF-295 CNS): 257 nM
GI50 (SF-539 CNS): 185 nM
TGI (SF-539 CNS): 1270 nM
GI50 (SK-MEL-5 melanoma): 88.2 nM
TGI (SK-MEL-5 melanoma): 261 nM
GI50 (SK-OV-3 ovarian): 80.5 nM
TGI (SK-OV-3 ovarian): 394 nM
GI50 (SN12C renal): 82.3 nM
TGI (SN12C renal): > 100000 nM
GI50 (SNB-19 CNS): 896 nM
TGI (SNB-19 CNS): 2260 nM
GI50 (SNB-75 CNS): 24 nM
TGI (SNB-75 CNS): 113 nM
GI50 (SR leukemia): 106 nM
TGI (SR leukemia): 304 nM
GI50 (SW-620 colon): 315 nM
TGI (SW-620 colon): > 100000 nM
GI50 (T-47D breast): 19.9 nM
TGI (T-47D breast): 84.6 nM
GI50 (TK-10 renal): 65.8 nM
TGI (TK-10 renal): 408 nM
GI50 (U251 glioblastoma): 490 nM
TGI (U251 glioblastoma): 1980 nM
GI50 (UO-31 renal): 56.2 nM
TGI (UO-31 renal): 856 nM
